According to patent US20110124021A1, “PHOS[…] ACID SYNTHASE AND CANCER” (priority 2007, published 2011):

Tests used:
Format in all cases: cell-based, human
[1] = test system: FAS phosphorylation in HCT-116 cell line; assay: Effect of okadaic acid on FAS phosphorylation in HCT-116 cells (FIG. 7A); conditions: brief treatment with 100 nM okadaic acid; HCT-116 colon cancer cell line
From the text: (§1) The relationship between FAS phosphorylation and cancer was investigated with a panel of the following human immortalized non-transformed cell lines: IMR-90 fetal lung, hPS human prostate and human cancer cell lines: HCT-116 colon, PPC-1 prostate, and SKBr3 breast. FAS enzyme levels (adjusted to total cellular protein) were quantitated by immunoblot and normalized to IMR-90. Both IMR-90 and hPS non-transformed cell lines had relatively low levels of FAS expression compared to the cancer cell lines, which ranged from 4.3 to 22 fold elevations compared to IMR-90 cells. The high level of FAS expression in SKBr3 cells is consistent with the observation that 28% of its cytosolic protein is FAS (Thompson et al., Biochem. Biophys Acta, 662: 125-130 (1981)).
(§2) Because the FAS expression levels in this panel of cells is consistent with observations made in vivo, the possibility of differential FAS phosphorylation in these cells was investigated. […] No immunoreactivity was detected with an anti-phosphotyrosine or an anti-phosphoserine antibody, although additional antibodies and FAS proteins were not tested. Additional human cancer cell lines, such as LnCAP, OVCAR-3, SKOV3 (ovary), RKO (colon), H460, LX7 (lung), CAPAN-1, and PANC-1 (pancreas) can also be assessed for differential FAS phosphorylation as described above. […]

total cellular FAS = assay: Effect of okadaic acid treatment on total cellular FAS (FIG. 7B); conditions: cell line not stated
From the text: FIGS. 7A and 7B, illustrates that phosphorylated FAS increases with okadaic acid treatment (part A) while total FAS protein is reduced (part B).
The effect of okadaic acid, a protein phosphatase 2A inhibitor, in FAS phosphorylation was studied.

[2] = test system: FAS phosphorylation in PPC-1 cell line; assay: Effect of okadaic acid on FAS phosphorylation in PPC-1 cells (FIG. 7A); conditions: brief treatment with 100 nM okadaic acid; PPC-1 prostate cancer cell line
From the text: as §1, §2

`C=C1[C@@H](O)[C@@H]2O[C@]3(CC[C@H](/C=C/[C@@H](C)[C@@H]4CC(C)=C[C@@]5(O[C@H](C[C@@](C)(O)C(=O)O)CC[C@H]5O)O4)O3)CC[C@H]2O[C@@H]1[C@@H](O)C[C@H](C)[C@H]1O[C@@]2(CCCCO2)CC[C@H]1C` [okadaic acid] was tested, and the “ratio of phosphorylated FAS to total FAS” value [1] was “increases substantially”, the “total FAS protein” value (total cellular FAS) was “reduced” and the “ratio of phosphorylated FAS to total FAS” value [2] was “increases substantially”.
